Entries after “also recorded” stand apart in the source; their conditions may differ.

Assay [1] concerns the target T1, ENPP-1 (Homo sapiens, UniProt P22413).
T1 construct: endogenous in cells; host or cells: primary human valve interstitial cells (VICs)
T1 sequence (P22413 1-925): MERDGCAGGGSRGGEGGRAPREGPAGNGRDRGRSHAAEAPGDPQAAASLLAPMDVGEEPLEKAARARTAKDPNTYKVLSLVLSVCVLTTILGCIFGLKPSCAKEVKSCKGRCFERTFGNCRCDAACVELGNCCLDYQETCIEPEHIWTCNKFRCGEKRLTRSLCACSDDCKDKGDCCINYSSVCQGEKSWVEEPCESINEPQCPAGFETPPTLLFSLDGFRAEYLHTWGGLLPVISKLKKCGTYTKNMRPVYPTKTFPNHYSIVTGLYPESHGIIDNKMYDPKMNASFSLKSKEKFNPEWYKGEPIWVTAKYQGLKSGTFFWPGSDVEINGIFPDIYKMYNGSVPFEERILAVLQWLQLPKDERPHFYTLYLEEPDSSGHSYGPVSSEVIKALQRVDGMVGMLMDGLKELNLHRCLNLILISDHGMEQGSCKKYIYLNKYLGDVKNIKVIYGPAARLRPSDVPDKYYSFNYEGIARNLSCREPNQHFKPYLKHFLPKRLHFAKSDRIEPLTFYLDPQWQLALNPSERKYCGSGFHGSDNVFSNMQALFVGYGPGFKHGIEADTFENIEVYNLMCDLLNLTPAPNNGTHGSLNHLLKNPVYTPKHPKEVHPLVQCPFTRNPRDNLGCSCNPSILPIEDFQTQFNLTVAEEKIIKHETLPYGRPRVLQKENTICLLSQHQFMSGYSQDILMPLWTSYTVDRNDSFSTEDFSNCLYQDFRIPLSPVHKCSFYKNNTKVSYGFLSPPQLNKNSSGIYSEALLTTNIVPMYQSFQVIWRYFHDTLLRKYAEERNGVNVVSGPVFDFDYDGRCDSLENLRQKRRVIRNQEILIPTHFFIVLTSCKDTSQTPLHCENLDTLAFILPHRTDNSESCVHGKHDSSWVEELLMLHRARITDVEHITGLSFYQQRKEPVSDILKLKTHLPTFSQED
Briefly: Phosphodiesterase activity in valve interstitial cells exposed to calcifying medium. The format is cell-based. The settings on record: VICs, calcifying medium (NaH2PO4 2 mM), 14 days; ARL 67156 10 μM and 25 μM. Here is the method: Phosphodiesterase activity was measured using the substrate p-nitrophenyl phenylphosphonate (PNPP-PP) (Sigma, Oakville, Ont, Canada). Proteins were isolated from normal control valves (n=14), AS valves (n=18) or valve interstitial cells (VICs) and used for enzyme activity. Cells were harvested with trypsine-EDTA (Invitrogen, Toronto, Ont, Canada), washed 2 times in washing buffer (NaCl 0.15M, TRIS-HCl pH 8.1, 20 mM, CaCl2 1 mM) and resuspended in assay buffer (NaCl 0.15M, TRIS-HCl pH 8.1, 20 mM, CaCl2 0.5 mM, 1 mM p-nitrophenyl phenylphosphonate). The same amount of proteins isolated from tissues were washed twice in washing buffer and resuspended in 600 μl of assay buffer. […] Absorbance was measured at 400 nm. Results were calculated using a molar absorption coefficient for p-nitrophenol of 18320 M^−1 cm^−1. […]
Human valve interstitial cells (VICs) were isolated by collagenase digestion from explanted hearts during transplant procedures. […] For calcium quantification, cells were decalcified with 0.6 M HCl for 24 h. The calcium content of the HCl supernatants was determined using the o-cresolphthalein complexone method. […] The protein content was determined using Biorad® assay kit (Biorad, Mississauga, Ont, Canada). […]

Assay [2] concerns alkaline phosphatase. Briefly: Alkaline phosphatase activity in valve interstitial cells exposed to calcifying medium. In kind it is cell-based, human. The conditions noted are these: VICs after exposition to calcifying medium. Here is the method: (§1) Human valve interstitial cells (VICs) were isolated by collagenase digestion from explanted hearts during transplant procedures. Cells were cultured in DMEM containing 10% FBS, 2 mM L-glutamine and 1 mM sodium pyruvate (Invitrogen, Toronto, Ont, Canada). Cells were seeded in 12 well plates (2×10^4 cells/well). To provoke calcification, cells were incubated with a pro-calcifying medium containing: DMEM+5% FBS, 10^−7 M insulin, 50 μg/ml ascorbic acid and NaH2PO4 at 2 mM (in some experiments where it is specified NaH2PO4 was used at 1, 2 and 5 mM). […] In some experiments ARL 67156 (a competitive inhibitor of ENPP-1) (10 μM and 25 μM) was added to the growth medium Studies were conducted at day 0, 7, 14 in triplicate. For calcium quantification, cells were decalcified with 0.6 M HCl for 24 h. The calcium content of the HCl supernatants was determined using the o-cresolphthalein complexone method. After decalcification, cells were washed with PBS and solubilised with 0.1 N NaOH/0.1% SDS. The protein content was determined using Biorad® assay kit (Biorad, Mississauga, Ont, Canada). Cells calcium content was normalized to protein content.

Assay [3] concerns Human valve interstitial cells (VICs). In words: In vitro calcification of valve interstitial cells (calcium content, o-cresolphthalein complexone method). The conditions noted are these: day 14 after treatment with calcifying medium; ARL 67156 10 μM and 25 μM. The format is cell-based. On the procedure: as §1
The subject of assay [4] is WVK rat model. In words: Warfarin and vitamin K (WVK) rat model of aortic calcification. The format is in vivo. On the procedure: Animal experiments were approved by the Animal Care and Use Committee of Laval and Montreal Universities. Male Wistar rats (initial weight 200 g) were obtained from Charles River Breeding Laboratories (St Constant, Qc, Canada). The animals received warfarin (20 mg/kg/day in drinking water) and vitamin K (phylloquinone) (15 mg/kg/day subcutaneous injection) (WVK) (n=10) at day 1, 3, 5, 7, 14, 21, and 28. Dosages were adjusted every second day. Controls consisted of age-matched untreated rats (n=7). In two other groups of rats, ARL 67156 was administered at 0.55 μg/kg/day (n=10) and 1.1 μg/kg/day (n=10) during 28 days with osmotic pumps implanted subcutaneously. At day 28, animals were anesthetized with pentobarbital (65 mg/kg) for blood plasma sampling and the harvesting of aorta and heart. Segments of the aorta were frozen at −80° C. for the determination of calcium amount. The heart with the aortic root and valve was fixed in formaldehyde 10% for histological processing and immunohistology. […] Morphometric analyses of the aortic root (at the level of aortic valve and sinuses of Valsalva) were carried out using the Image-Pro Plus (MediaCybernetics, Bethesda, Md., USA) image analysis software to quantify the calcified areas (with the von Kossa staining) normalized to the total surface area of the section.

Take `CCN(CC)c1ncnc2c1ncn2C1OC(COP(=O)(O)OP(=O)(O)C(Br)(Br)P(=O)(O)O)[C@@H](O)[C@H]1O` (some centres unmarked) [ARL 67156]: in assay [1], the phosphodiesterase activity entry is on record as “dose-dependently decreased; also recorded: significantly reduced”. Besides, the “alkaline phosphatase (ALP) activity” value in assay [2] is “did not affect; also recorded: not affected”. For the same molecule, in assay [3], the “calcification of isolated VICs” value is recorded as “significantly reduced; also recorded: dose-dependently reduced”. Moreover, the “calcification of the aortic root at the level of aortic cusp” value in assay [4] (rat treated with 1.1 μg/kg/d, von Kossa histology (FIG. 5F)) is “without calcification”. Further, the “calcification of the aortic valve cusps” value in assay [4] (rats under WVK regimen, 28 days, 0.55 μg/kg/d and 1.1 μg/kg/d by osmotic pump) is on record as “prevented the development of aortic valve calcifications; also recorded: not detected”.

For the origin of these results see patent US8435964B2, “Ectonucleotidase pyrophosphate/phosphodiestrase-1 (ENPP-1) as a target for the treatment of aortic valve stenosis and cardiovascular calcification” (Universite Laval, priority 2009, dated 2013).
